Results published in article PMC9704104, “Towards safer anti-inflammatory therapy: synthesis of new thymol–pyrazole hybrids as dual COX-2/5-LOX inhibitors” (Journal of Enzyme Inhibition and Medicinal Chemistry, 2022).
Several values for one entry are separate records, joined by “and”; a condition that tells them apart may be missing. Equal entries are not always repeated. Entries after “also recorded” stand apart in the source; their conditions may differ. Where two headings read alike, the source gives them in different places. Marks after values point to notes of the source that are not given here.

What was measured:
gastric mucosa = experiment: In vivo gastric ulcerogenic activity (gross examination of gastric mucosa); conditions: fasted rats, 60 mg/kg orally, six hours after treatment
[1] = tested on: formalin-induced rat paw oedema; experiment: Formalin-induced paw oedema test (acute inflammation model); assay type: in vivo; conditions: for inhibition in vivo at 5 mg/kg: Rattus norvegicus; for inhibition in vivo at 5 mg/kg / Volume of oedema (ml) 4h, Mean ± SD: po; for inhibition in vivo at 5 mg/kg / % inhibition of paw oedema compared with reference drugs (in words) / % Inhibition of oedema volume, Mean ± SD / Volume of oedema (ml) 4h, Mean ± SD: 4 h; for % Relative potency (4h) celecoxib, Mean ± SD / % Relative potency (4h) celecoxib: relative to % inhibition of celecoxib at 4 h; for % Relative potency (4h) diclofenac, Mean ± SD / % Relative potency (4h) diclofenac: relative to % inhibition of diclofenac at 4 h; for % inhibition of paw oedema compared with reference drugs (in words): comparison with celecoxib or diclofenac sodium
Description: Animals Adult female albino rats weighing 150-250 g were used (Experimental Animal Centre in Alexandria University). All animals accessed to food and water ad libitum and were housed in 12 h dark/light cycle in a controlled condition at 23-250C. They were allowed to acclimatize for 1 week prior to experimentation. Procedures involving animals and their care were conducted in conformity with the Guide for the Care and Use of Laboratory Animals published by US National Institute of Health4 (NIH publication No. 83-23, revised) and following the ethical guidelines of Alexandria University on laboratory animals. In all tests, adequate considerations were adopted to reduce pain or discomfort of animals (Approved by AlexU-IACUC) 3. […]
Formalin-induced paw edema test (acute inflammation model):
A solution of freshly prepared formalin 5% was used as a phlogistic agent. A mark was made on the lateral malleolus of the rats’ paws delineating the injection sites. The initial volume of paw was measured by means of digital calibrated Vernier caliper .
After 45 minutes, 40 μl formalin were injected subcutaneously into the sub plantar tissue of the right hind paw of all groups under light ether anesthesia . An equal volume of saline was injected into the left hind paw and served as internal control for the degree of inflammation in the right hind paw. 5, 6 The volume of paw was measured in different treatment groups, 4 h following the formalin injection and the amount of increase in paw volume (edema volume) was calculated by subtracting the volumes before and 4 h after the injection of formalin. Edema was expressed as an increase in the volume of paw, and the percentage of edema inhibition (or percent protection against inflammation) for each rat and each group was calculated according to the following equation: […]
Where Vt is the mean volume of edema at specific time interval (4 h) and Vo is the mean volume of edema […]
Relative potency of the tested compounds was expressed as % inhibition of edema for the tested compounds

5-LOX = experiment: In vitro 5-LOX inhibitory assay (Abnova 5-LOX inhibitor screening assay kit); assay type: biochemical
Source text: The newly synthesised compounds were screened for their ability to inhibit 5-LOX enzymes. […] (Page: S21, Supplementary file). […]
In vitro LOX inhibitory assay
Inhibitor Screening Assay Kit detects and measures the hydroperoxides produced in the lipoxygenation reaction using a purified LOX. The detection reaction is equally sensitive to hydroperoxides at various positions within the fatty acid and will work with fatty acids of any carbon length. It is thus a general detection method for 5-LOX and can be used to screen libraries of compounds for those which inhibit 5 -LOX enzymes.
1) Blank Wells- add 100 µL of assay buffer to at least two wells.
2) Positive Control Wells- Lipoxygenase (15-LO standard) add 90 µL 15-LO and 10 µL of assay buffer […]
3) 100% Initial Activity Wells- add 90 µL 15-LO and 10 µL of solvent (DMSO) (the same solvent to dissolve the inhibitor) to two wells. The 100% initial activity wells should result in approximately 10 […]
4) Inhibitor Wells- add 90 µL of sample and I10 µL of inhibitor to two wells.
5) Initiate the reaction by adding 10 µL of substrate (either arachidonic acid or linoleic acid) to all the wells. Place the 96-well plate on a shaker for at least five minutes.
6) Add 100 µL of chromogen to each well to stop enzyme catalysis and develop the reaction. Cover with a plate cover and place the 96-well plate on a shaker for at least five minutes.
7) Remove the cover and read the absorbance at 490-500 nm using a plate reader.
Inhibitors were dissolved in DMSO. The inhibitors were added to the assay in a final volume of 10 µL before initiating with substrate. Three concentrations were prepared (25, 50 and 100 µM) to determine the concentration produced 50% enzyme inhibition.
2) The absorbance of blank wells was subtracted from absorbance of the 100% Initial activity and the […]

COX-1 = biological target: T1, COX-1 (Ovis aries, UniProt P05979); experiment: In vitro COX-1 inhibitory assay (Cayman colorimetric COX (ovine) inhibitor screening assay kit); assay type: biochemical; conditions: mean of three replicates ± SD
T1 construct: purchased Cayman chemicals 560131
T1 sequence (P05979 25-600): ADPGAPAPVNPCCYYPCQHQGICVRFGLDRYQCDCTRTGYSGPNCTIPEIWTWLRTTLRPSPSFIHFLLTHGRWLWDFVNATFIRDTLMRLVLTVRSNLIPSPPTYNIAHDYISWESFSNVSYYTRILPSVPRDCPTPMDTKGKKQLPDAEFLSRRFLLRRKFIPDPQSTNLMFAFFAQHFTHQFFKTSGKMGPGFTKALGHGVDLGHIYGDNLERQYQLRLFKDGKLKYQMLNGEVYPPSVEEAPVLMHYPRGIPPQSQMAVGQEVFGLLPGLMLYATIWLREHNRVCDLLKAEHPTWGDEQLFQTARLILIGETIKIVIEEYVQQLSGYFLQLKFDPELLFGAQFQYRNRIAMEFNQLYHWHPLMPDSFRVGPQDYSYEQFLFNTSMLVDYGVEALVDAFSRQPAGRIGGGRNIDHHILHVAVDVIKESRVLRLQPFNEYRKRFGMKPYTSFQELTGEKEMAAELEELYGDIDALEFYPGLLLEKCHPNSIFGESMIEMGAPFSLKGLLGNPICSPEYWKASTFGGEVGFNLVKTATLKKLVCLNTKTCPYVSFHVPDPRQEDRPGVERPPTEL
Description: (Page: S20, Supplementary file).
Anti-inflammatory activity
In vitro COX-1 and COX-2 inhibitory assay […]
supplied by Cayman chemicals, Ann Arbor, MI, USA according to reported method 1. The colorimetric COX inhibitor screening assay utilizes the peroxidase component of cyclooxygenase. The peroxidase activity was assayed calorimetrically by monitoring the appearance of oxidized N,N,N',N'-tetramethyl-1,4-phenylenediamine (TMPD) at 590nm. The appearance of reagent was carried out following the instructions […]
The half- maximal inhibitor concentrations (IC50µM) were determined and the selectivity index (SI) values were calculated as IC50 (COX-1)/IC50 (COX-2).
1) Background wells- 160 µL of assay buffer and 10 µL of heme were added to background wells.
2) The 100% Initial activity wells- 150 µL of assay buffer, 10 µL of heme and 10 µL of enzyme (COX-1 or COX-2) were added.
3) Inhibitor well- 150 µL of assay buffer, 10 µL of heme and 10 µL of enzyme were added.
4) 10 µL of inhibitor (3 concentrations) in DMSO was added to the inhibitor wells to yield a final […]
5) 10 µL of solvent (DMSO) was added to the 100% Initial activity wells and background wells.
7) 20 µL of colorimetric substrate solution (TMPD) was added to all wells.
8) 20 µL of arachidonic acid was added to all wells to yield a final concentration of 100 µM.
10) The absorbance was measured at 590 nm using a plate reader.
The calculations were carried out in the following manner:
1) The average absorbance of all samples was determined.
2) The absorbance of background wells was subtracted from absorbance of the 100% Initial activity […]
3) Percent inhibition = (100% Initial activity – Inhibitor wells/ 100% Initial activity)∗ 100 […]
Place the 96-well plate on a shaker for at least five minutes. […]

[2] = individual rats 1-3, 5 mg/kg orally, read-out: % Inhibition of oedema volume
[3] = individual rats 1-3, 5 mg/kg orally, 5 mg/kg
[4] = group mean ± SD, 5 mg/kg orally
[5] = 4 h minus 0, group mean ± SD, 5 mg/kg orally
[6] = read-out: % Inhibition of oedema volume, 4 h, individual rats 1-3, 5 mg/kg orally
[7] = read-out: % Inhibition of oedema volume, Mean ± SD, 4 h, group mean ± SD, 5 mg/kg orally

IC50 (5-LOX) | IC50 (COX-1) | Structure (SMILES) | Gross appearance of gastric mucosa (ulcerogenic potential) (gastric mucosa; 60 mg/kg) | inhibition in vivo at 5 mg/kg [1, 2] | % Relative potency (4h) celecoxib, Mean ± SD ([1]; group mean ± SD) | % Relative potency (4h) celecoxib ([1]; individual rats 1-3) | % Relative potency (4h) diclofenac, Mean ± SD ([1]; group mean ± SD) | % Relative potency (4h) diclofenac ([1]; individual rats 1-3) | Volume of oedema (ml) 0 [1, 3] | % inhibition of paw oedema compared with reference drugs (in words) ([1]; 5 mg/kg orally) | Volume of oedema (ml) 4h ([1]; 4 h after formalin, individual rats 1-3, 5 mg/kg orally, 5 mg/kg) | Abs diff. ([1]; 4 h minus 0, individual rats 1-3, 5 mg/kg orally, 5 mg/kg) | inhibition in vivo at 5 mg/kg ([1]; group mean ± SD, 5 mg/kg orally, read-out: % Inhibition of oedema volume, Mean ± SD) | Gross appearance of gastric mucosa (ulcerogenic potential) (gastric mucosa) | % Inhibition of oedema volume, Mean ± SD [1, 4] | Abs diff., Mean ± SD [1, 5] | inhibition in vivo at 5 mg/kg [1, 6] | inhibition in vivo at 5 mg/kg [1, 7] | Volume of oedema (ml) 4h, Mean ± SD ([1]; 5 mg/kg)
1.84 ± 0.06 µM | 11.8 ± 0.15 µM | Cc1ccc(C(C)C)c(O)c1C=NNC(=O)c1cc(-c2ccc(Br)cc2)n[nH]1 [Compound 4b, 3-(4-Bromophenyl)-N'-(2-hydroxy-3-isopropyl-6-methylbenzylidene)-1H-pyrazole-5-carbohydrazide] | No gross ulceration | 55.9% | 148.9 ± 11.16% | 159.0% and 136.90% and 150.70% | 103.5 ± 12.68% | 118.10% and 97.50% and 95.0% | 5.15 mL | – | – | – | – | – | – | – | – | – | –
1.97 ± 0.026 µM | 12.6 ± 1.36 µM | Cc1ccc(C(C)C)c(O)c1C=NNC(=O)c1cc(-c2ccc(Br)cc2)n(-c2ccc(Cl)cc2)n1 [Compound 8h, 5-(4-Bromophenyl)-1-(4-chlorophenyl)-N'-(2-hydroxy-3-isopropyl-6-methylbenzylidene)-1H-pyrazole-3-carbohydrazide] | variable degrees of hyperaemia; also recorded: Hyperemia without gross ulceration | 53.6% | 140.9 ± 20.93% | 152.60% and 116.70% and 153.30% | 97.67 ± 15.13% | 113.30% and 83.10% and 96.60% | 5.02 mL | slightly less % inhibition than that of Diclofenac sodium | – | – | – | – | – | – | – | – | –
1.96 ± 0.036 µM | 11.2 ± 0.15 µM | Cc1ccc(C(C)C)c(O)c1C=NNC(=O)c1cc(-c2ccccc2)n(-c2ccc(S(N)(=O)=O)cc2)n1 [Compound 8a, 4-(3-(2–(2-Hydroxy-3-isopropyl-6-methylbenzylidene)hydrazine-1-carbonyl)-5-phenyl-1H-pyrazol-1-yl)benzenesulfonamide] | variable degrees of hyperaemia; also recorded: Hyperemia without gross ulceration | 40.1% | 106.8 ± 12.02% | 114.10% and 92.90% and 113.30% | 74.10 ± 9.64% | 84.80% and 66.10% and 71.40% | 5.02 mL | slightly less % inhibition than that of Diclofenac sodium | 6.35 mL | – | – | – | – | – | – | – | –
2.56 ± 0.025 µM | 11.24 ± 0.075 µM | Cc1ccc(C(C)C)c(O)c1C=NNC(=O)c1cc(-c2ccc(Br)cc2)n(-c2ccccc2)n1 [Compound 8e, 5-(4-Bromophenyl)-N'-(2-hydroxy-3-isopropyl-6-methylbenzylidene)-1-phenyl-1H-pyrazole-3-carbohydrazide] | – | 59.5% | 149.1 ± 20.95% | 169.20% and 127.40% and 150.70% | 103.8 ± 19.09% | 125.70% and 90.70% and 95.0% | – | – | – | – | – | – | – | – | – | – | –
2.91 ± 0.064 µM | 11.2 ± 0.57 µM | COc1ccc(-c2cc(C(=O)NN=Cc3c(C)ccc(C(C)C)c3O)nn2-c2ccccc2)cc1 [Compound 8f, 5-(4-Methoxyphenyl)-N'-(2-hydroxy-3-isopropyl-6-methylbenzylidene)-1-phenyl-1H-pyrazole-3-carbohydrazide] | – | 50.5% | 127.7 ± 14.41% | 143.60% and 115.50% and 124.0% | 89.03 ± 15.43% | 106.70% and 82.20% and 78.20% | 5.15 mL | slightly less % inhibition than that of Diclofenac sodium | – | 1.20 | 46.3 ± 3.67% | – | – | – | – | – | –
– | – | Cc1ccc(-c2cc(C(F)(F)F)nn2-c2ccc(S(N)(=O)=O)cc2)cc1 [Celecoxib, reference compound] | – | – | – | – | – | – | – | – | – | – | – | no ulceration | 36.33 ± 2.05% | 1.38^a ± 0.06 | 35.2% | 36.4% | 5.69^a ± 0.02 ml
– | – | O=C(O)Cc1ccccc1Nc1c(Cl)cccc1Cl [Diclofenac sodium, reference compound] | – | – | – | – | – | – | – | – | – | – | – | no ulceration | 52.53^b ± 4.59% | 1.03^ab ± 0.12 | 47.3% | 52.4% | 5.30^ab ± 0.09 ml
